According to patent publication US11344510B2, “Arylcyclohexylamine derivatives and their use in the treatment of psychiatric disorders” (Gilgamesh Pharmaceuticals, Inc., priority 2019, dated 2022):
Where a name gives a salt, the structure may show the parent alone. Read-outs that look alike come from different tables or passages of the source.

Columns and labels:
[1] = RLM stability (Low Activity); format: in vitro ADME, Sprague Dawley rats; conditions: male, Sprague Dawley, rat, liver microsomes, pH 7.4, Condition 1 (Low Activity), 0.50 mg protein/mL
In short: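 Pooled male Sprague Dawley rat liver microsomes (0.50 mg/mL) in PBS pH 7.4 with 1 mM MgCl2 and 1 mM NADPH; compound 1 μM, 1.0% solvent, 37° C. Six time points over 60 min, parent remaining by LC-MS/MS; kel, t1/2 and Clint from linear regression of ln(AUC) versus time.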

[2] = MLM stability (Low Activity); format: in vitro ADME, CD-1 mice; conditions: male, CD-1, mouse, liver microsomes, pH 7.4, Condition 1 (Low Activity), 0.50 mg protein/mL
In short: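 Pooled male CD-1 mouse liver microsomes (0.50 mg/mL) with 1 μM compound and 1 mM NADPH in 100 mM PBS pH 7.4 with 1 mM MgCl2, 37 °C, six time points over 60 min. Parent remaining by LC-MS/MS; kel, t1/2 and Clint from linear regression of ln(AUC) versus time.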

[3] = Oral bioavailability in mice, Method A; format: in vivo; conditions: CD-1 mice; for F: 10 mg/kg; for half-life / Cmax / AUC(0-inf): male, mouse
Protocol: Animals. Male CD-1 mice were used in these studies Animals were randomly assigned to treatment groups and were fasted for 4 h before dosing.
Drugs. Test compounds were dissolved in normal saline (ketamine) or de-ionized water (other compounds) and administered intravenously (iv) or orally (po) at a dose of 10 mg/kg (calculated based on freebase) and at a volume of 5 mL/kg body weight. Compounds were tested as the racemates (indicated by “rac” nomenclature) or pure enantiomers (indicated by “R” or “S” nomenclature).
Sample Collection and Bioanalysis. Blood samples were collected under 2,2,2-tribromoethanol anesthesia (150 mg/kg, ip) from the orbital sinus at 0.083, 0.25, 0.5, 1, 2, 4, 8 and 24 h (4 animals per time point) into microcontainers containing K2EDTA Immediately after collection of blood, mice were euthanized by cervical dislocation and brain samples were collected at the same time points. All samples were immediately processed, flash-frozen, and stored at −70° C. until subsequent analysis. Plasma samples were separated by centrifugation of whole blood and aliquots (50 μL) were mixed with 200 μL of internal standard solution (400 ng/mL in 1:1 v/v CH3CN:MeOH). After mixing by pipetting and centrifuging for 4 min at 6000 rpm, 0.5 μL of each supernatant was analyzed for drug using a fit-for-purpose liquid chromatography-tandem mass spectrometry (LC-MS/MS) method, with authentic samples of each analyte used for calibration and identification. Brain samples (weight 100 mg±1 mg) were dispersed in 500 μL, of internal standard solution (400 ng/mL in 4:1 v/v MeOH:water) using zirconium oxide beads (115 mg±5 mg) in The Bullet Blender® homogenizer for 30 s at speed 8. After homogenization, the samples were centrifuged for 4 min at 14,000 rpm and 0.5 μL of each supernatant was analyzed for drug using a fit-for-purpose LC-MS/MS method, with authentic samples of each analyte used for calibration and identification.
Data Analysis. The drug concentrations of samples below the lower limit of quantitation (LLOQ) were designated as zero. Pharmacokinetic data analysis was performed using noncompartmental, bolus injection or extravascular input analysis models in WinNonlin 5.2 (PharSight). Data points below LLOQ were presented as missing to improve validity of t112 calculations.

SERT = target: T1, SERT (Homo sapiens, UniProt P31645); test: SERT radioligand binding with [3H]imipramine
T1 construct: expressed in transfected cells; host or cells: HEK293
Protocol: (§1) Radioligand Binding. Affinity of the test compounds for SERT, NET, and DAT was determined in radioligand binding experiments with [^3H]imipramine, [^3]nisoxetine, and [^3H]WIN35,428, respectively, by WuXi AppTec (Hong Kong) Limited, under the conditions described in Table 15.

NET = target: T2, NET (Homo sapiens, UniProt P23975); test: NET radioligand binding with [3H]nisoxetine
T2 construct: expressed in transfected cells; host or cells: HEK293
Protocol: as §1

DAT = target: T3, DAT (Homo sapiens, UniProt Q01959); test: DAT radioligand binding with [3H]WIN35,428
T3 construct: expressed in transfected cells; host or cells: CHO (uptake)
Protocol: as §1

[4] = calculated based on brain exposure
[5] = brain, 10 mg/kg iv, read-out: t1/2 (iv)
[6] = brain, 10 mg/kg po, read-out: t1/2 (po)
[7] = plasma, 10 mg/kg iv, read-out: AUC0-inf (iv) (converted)
[8] = plasma, 10 mg/kg iv, read-out: t1/2 (iv)
[9] = plasma, 10 mg/kg po, read-out: AUC0-inf (po) (converted)
[10] = plasma, 10 mg/kg po, read-out: t1/2 (po)
[11] = plasma, absolute oral bioavailability

T2 sequence (P23975 whole entry, species assumed): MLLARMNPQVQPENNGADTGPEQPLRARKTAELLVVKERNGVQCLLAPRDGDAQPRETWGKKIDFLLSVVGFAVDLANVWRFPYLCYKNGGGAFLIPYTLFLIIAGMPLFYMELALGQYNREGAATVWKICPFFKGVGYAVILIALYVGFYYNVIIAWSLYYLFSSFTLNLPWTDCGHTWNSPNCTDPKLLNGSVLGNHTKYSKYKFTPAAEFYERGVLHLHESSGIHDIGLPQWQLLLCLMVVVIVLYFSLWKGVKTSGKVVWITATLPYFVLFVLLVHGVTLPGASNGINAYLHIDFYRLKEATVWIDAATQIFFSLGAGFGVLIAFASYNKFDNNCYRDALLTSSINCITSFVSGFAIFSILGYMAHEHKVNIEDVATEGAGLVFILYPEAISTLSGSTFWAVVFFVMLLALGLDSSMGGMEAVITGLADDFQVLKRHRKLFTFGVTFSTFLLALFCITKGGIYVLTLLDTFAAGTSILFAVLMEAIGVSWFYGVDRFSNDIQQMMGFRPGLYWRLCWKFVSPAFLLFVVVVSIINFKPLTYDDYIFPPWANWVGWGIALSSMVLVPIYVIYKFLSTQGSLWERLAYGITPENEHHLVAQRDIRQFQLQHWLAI
T3 sequence (Q01959 whole entry, species assumed): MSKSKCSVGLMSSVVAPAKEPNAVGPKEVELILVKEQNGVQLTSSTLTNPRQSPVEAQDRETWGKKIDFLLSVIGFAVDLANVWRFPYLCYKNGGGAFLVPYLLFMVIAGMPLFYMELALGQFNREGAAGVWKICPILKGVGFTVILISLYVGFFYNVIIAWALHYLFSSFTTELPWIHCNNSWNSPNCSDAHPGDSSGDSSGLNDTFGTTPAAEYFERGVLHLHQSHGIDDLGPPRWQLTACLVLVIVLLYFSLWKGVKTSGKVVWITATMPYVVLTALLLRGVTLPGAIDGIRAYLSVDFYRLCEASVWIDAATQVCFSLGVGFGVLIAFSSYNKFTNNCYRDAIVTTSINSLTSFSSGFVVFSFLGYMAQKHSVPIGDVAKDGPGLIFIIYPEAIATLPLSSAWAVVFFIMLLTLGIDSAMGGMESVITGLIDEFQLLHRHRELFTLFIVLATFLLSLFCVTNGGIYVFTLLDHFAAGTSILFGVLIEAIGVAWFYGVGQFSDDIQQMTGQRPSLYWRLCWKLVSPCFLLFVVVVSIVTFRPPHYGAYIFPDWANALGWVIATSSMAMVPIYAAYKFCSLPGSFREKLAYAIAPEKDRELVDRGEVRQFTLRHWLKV
T1 sequence (P31645 whole entry, species assumed): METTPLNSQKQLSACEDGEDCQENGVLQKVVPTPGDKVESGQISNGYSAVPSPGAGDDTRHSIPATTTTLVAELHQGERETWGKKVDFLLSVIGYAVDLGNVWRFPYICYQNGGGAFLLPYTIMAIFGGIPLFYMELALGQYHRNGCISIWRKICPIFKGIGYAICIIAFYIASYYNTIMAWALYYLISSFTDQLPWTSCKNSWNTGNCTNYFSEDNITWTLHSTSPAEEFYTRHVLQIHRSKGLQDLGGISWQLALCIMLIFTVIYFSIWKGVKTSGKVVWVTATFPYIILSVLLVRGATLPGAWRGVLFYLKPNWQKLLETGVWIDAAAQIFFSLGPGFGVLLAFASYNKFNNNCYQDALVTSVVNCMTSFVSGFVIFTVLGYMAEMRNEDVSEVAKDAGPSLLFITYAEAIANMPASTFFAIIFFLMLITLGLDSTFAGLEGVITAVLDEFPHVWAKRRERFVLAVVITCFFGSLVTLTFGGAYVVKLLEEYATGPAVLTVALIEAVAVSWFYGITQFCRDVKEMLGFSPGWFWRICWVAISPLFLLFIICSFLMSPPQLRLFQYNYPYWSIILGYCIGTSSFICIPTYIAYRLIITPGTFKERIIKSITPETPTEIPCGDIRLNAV

Structure (SMILES): Cc1ccccc1[C@@]1(N)CCCCC1=O [Compound 114S, (S)-2-amino-2-(o-tolyl)cyclohexan-1-one]
- half-life at 1 μM [1]: 25.4 min
- microsomal CLint at 1 μM [1]: 54.5 µL/min/mg
- half-life at 1 μM [2]: 80.9 min
- microsomal CLint at 1 μM [2]: 17.1 µL/min/mg

Structure (SMILES): CN[C@@]1(c2ccccc2)CCCCC1=O [Compound 14R, (R)-2-(methylamino)-2-phenylcyclohexan-1-one]
- AUC0-inf (iv) ([3]; brain, 10 mg/kg iv): 548,000 ng*min/g
- AUC0-inf (po) ([3]; brain, 10 mg/kg po): 192,000 ng*min/g
- F [3, 4]: 35%
- half-life [3, 5]: 716 min
- Cmax ([3]; brain, 10 mg/kg po): 3640 ng/g
- half-life [3, 6]: 44.1 min
- AUC(0-inf) [3, 7]: 3.52 µg·h/mL
- half-life [3, 8]: 70.5 min
- Cmax ([3]; plasma, 10 mg/kg po): 1.7 µg/mL
- AUC(0-inf) [3, 9]: 1.41 µg·h/mL
- half-life [3, 10]: 55.3 min
- F [3, 11]: 40%
- Ki (SERT): 40 µM

Structure (SMILES): N[C@]1(c2ccccc2)CCCCC1=O [Compound 11S, (S)-2-amino-2-phenyl-cyclohexan-1-one]
- half-life at 1 μM [2]: > 145 min
- microsomal CLint at 1 μM [2]: < 9.6 µL/min/mg

Structure (SMILES): O=C1CCCCC1(c1ccccc1)N1CCCC1 (racemic) [Compound 27rac, 2-phenyl-2-(pyrrolidin-1-yl)cyclohexan-1-one]
- half-life at 1 μM [1]: 35.4 min
- microsomal CLint at 1 μM [1]: 39.1 µL/min/mg
- Ki (NET): 11.5 µM
- Ki (DAT): 55.1 µM
- Ki (SERT): 0.11 µM

Structure (SMILES): Cc1ccccc1[C@]1(N)CCCCC1=O [Compound 114R, (R)-2-amino-2-(o-tolyl)cyclohexan-1-one]
- half-life at 1 μM [1]: 27.6 min
- microsomal CLint at 1 μM [1]: 50.3 µL/min/mg
- half-life at 1 μM [2]: 43.7 min
- microsomal CLint at 1 μM [2]: 31.7 µL/min/mg

Structure (SMILES): N[C@@]1(c2ccccc2)CCCCC1=O [Compound 11R, (R)-2-amino-2-phenyl-cyclohexan-1-one]
- half-life at 1 μM [2]: > 145 min
- microsomal CLint at 1 μM [2]: < 9.6 µL/min/mg

Structure (SMILES): CNC1(c2ccccc2)CCCCC1=O (racemic) [Compound 14rac, 2-(methylamino)-2-phenylcyclohexan-1-one hydrochloride]
- AUC0-inf (iv) ([3]; brain, 10 mg/kg iv): 457,000 ng*min/g
- AUC0-inf (po) ([3]; brain, 10 mg/kg po): 192,000 ng*min/g
- F [3, 4]: 42%
- half-life [3, 5]: 28.1 min
- Cmax ([3]; brain, 10 mg/kg po): 3150 ng/g
- half-life [3, 6]: 39.4 min
- AUC(0-inf) [3, 7]: 1.93 µg·h/mL
- half-life [3, 8]: 33.7 min
- Cmax ([3]; plasma, 10 mg/kg po): 0.93 µg/mL
- AUC(0-inf) [3, 9]: 0.92 µg·h/mL
- half-life [3, 10]: 42.3 min
- F [3, 11]: 48%

Structure (SMILES): O=C1CCCC[C@@]1(c1ccccc1)N1CCC1 [Compound 84S, (S)-2-(azetidin-1-yl)-2-phenyl-cyclohexan-1-one]
- Ki (NET): 53.8 µM
- Ki (DAT): 91.4 µM
- Ki (SERT): 0.72 µM

Structure (SMILES): CN[C@]1(c2ccccc2)CCCCC1=O [Compound 14S, (S)-2-(methylamino)-2-phenylcyclohexan-1-one]
- AUC0-inf (iv) ([3]; brain, 10 mg/kg iv): 507,000 ng*min/g
- AUC0-inf (po) ([3]; brain, 10 mg/kg po): 166,000 ng*min/g
- F [3, 4]: 33%
- half-life [3, 5]: 127 min
- Cmax ([3]; brain, 10 mg/kg po): 3480 ng/g
- half-life [3, 6]: 104 min
- AUC(0-inf) [3, 7]: 2.18 µg·h/mL
- half-life [3, 8]: 142 min
- Cmax ([3]; plasma, 10 mg/kg po): 0.951 µg/mL
- AUC(0-inf) [3, 9]: 0.993 µg·h/mL
- half-life [3, 10]: 176 min
- F [3, 11]: 45.5%
- Ki (SERT): 45.1 µM

Structure (SMILES): O=C1CCCC[C@]1(c1ccccc1)N1CCC1 [Compound 84R, (R)-2-(azetidin-1-yl)-2-phenyl-cyclohexan-1-one]
- Ki (NET): 77.8 µM
- Ki (DAT): > 94.7 µM
- Ki (SERT): 0.6 µM

Structure (SMILES): CNC1(c2ccccc2Cl)CCCCC1=O (racemic) [rac-ketamine, racemic ketamine, reference compound]
- AUC0-inf (iv) ([3]; brain, 10 mg/kg iv): 97,000 ng*min/g
- AUC0-inf (po) ([3]; brain, 10 mg/kg po): 6,030 ng*min/g
- F [3, 4]: 6.2%
- F [3, 11]: 15%
